Data taken from PubChem BioAssay (NCI).
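Following 48 hours of exposure in 96-well plates, responses at five concentrations were used to interpolate endpoints linearly. TGI: total growth inhibition.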

Key:
Test in all cases: growth of human tumour cells (NCI), 48 h
[1] = system: KM12 colon
[2] = system: PC-3 prostate
[3] = system: MDA-N
[4] = system: COLO 205 colon
[5] = system: OVCAR-3 ovarian
[6] = system: SNB-19 CNS
[7] = system: SW-620 colon
[8] = system: HCT-15 colon
[9] = system: K-562 leukemia
[10] = system: SNB-75 CNS
[11] = system: NCI/ADR-RES ovarian
[12] = system: SF-268 CNS
[13] = system: NCI-H522 lung
[14] = system: SK-MEL-28 melanoma
[15] = system: NCI-H23 lung
[16] = system: EKVX NSCLC
[17] = system: DU-145 prostate
[18] = system: MCF7 breast
[19] = system: UO-31 renal
[20] = system: CCRF-CEM leukemia
[21] = system: SR leukemia
[22] = system: M14 melanoma
[23] = system: IGROV1 ovarian
[24] = system: HCT-116 colon
[25] = system: OVCAR-5 ovarian
[26] = system: NCI-H460 lung
[27] = system: MDA-MB-435
[28] = system: A549 NSCLC
[29] = system: HCC-2998 colon
[30] = system: HL-60(TB) leukemia
[31] = system: SK-MEL-5 melanoma
[32] = system: MALME-3M melanoma
[33] = system: 786-0 renal
[34] = system: ACHN renal
[35] = system: BT-549 breast
[36] = system: MDA-MB-231 breast
[37] = system: OVCAR-8 ovarian
[38] = system: T-47D breast
[39] = system: HOP-92 NSCLC
[40] = system: LOX IMVI melanoma
[41] = system: HS 578T breast
[42] = system: MOLT-4 leukemia
[43] = system: RPMI-8226 leukemia
[44] = system: UACC-62 melanoma
[45] = system: CAKI-1 renal
[46] = system: UACC-257 melanoma
[47] = system: RXF 393 renal
[48] = system: NCI-H226 lung
[49] = system: TK-10 renal
[50] = system: SK-MEL-2 melanoma
[51] = system: SF-295 CNS
[52] = system: HT29 colon
[53] = system: SK-OV-3 ovarian
[54] = system: OVCAR-4 ovarian
[55] = system: SN12C renal
[56] = system: A498 renal
[57] = system: SF-539 CNS
[58] = system: HOP-62 NSCLC
[59] = system: U251 CNS

O=c1cccccc1O
TGI [1]: > 100 µM | TGI [2]: > 100 µM | TGI [3]: > 100 µM | TGI [4]: > 100 µM | TGI [5]: > 100 µM | TGI [6]: > 100 µM | TGI [7]: > 100 µM | TGI [8]: > 100 µM | TGI [9]: > 100 µM | TGI [10]: > 100 µM | TGI [11]: > 100 µM | TGI [12]: > 100 µM | TGI [13]: > 100 µM | TGI [14]: > 100 µM | TGI [15]: > 100 µM | TGI [16]: > 100 µM | TGI [17]: > 100 µM | TGI [18]: > 100 µM | TGI [19]: > 100 µM | TGI [20]: 82.5 µM | TGI [21]: > 100 µM | TGI [22]: > 100 µM | TGI [23]: > 100 µM | TGI [24]: > 100 µM | TGI [25]: > 100 µM | TGI [26]: > 100 µM | TGI [27]: > 100 µM | TGI [28]: > 100 µM | TGI [29]: > 100 µM | TGI [30]: 43.7 µM | TGI [31]: > 100 µM | TGI [32]: > 100 µM | TGI [33]: > 100 µM | TGI [34]: > 100 µM | TGI [35]: > 100 µM | TGI [36]: > 100 µM | TGI [37]: > 100 µM | TGI [38]: > 100 µM | TGI [39]: > 100 µM | TGI [40]: > 100 µM | TGI [41]: > 100 µM | TGI [42]: > 100 µM | TGI [43]: > 100 µM | TGI [44]: > 100 µM | TGI [45]: > 100 µM | TGI [46]: > 100 µM | TGI [47]: > 100 µM | TGI [48]: > 100 µM | TGI [49]: > 100 µM | TGI [50]: > 100 µM | TGI [51]: > 100 µM | TGI [52]: > 100 µM | TGI [53]: > 100 µM | TGI [54]: > 100 µM

COc1ccc(Cc2ccc3[nH]c(=O)cc(C)c3c2)cc1S(=O)(=O)O
TGI [1]: > 100 µM | TGI [2]: > 100 µM | TGI [3]: > 100 µM | TGI [4]: > 100 µM | TGI [5]: > 100 µM | TGI [6]: > 100 µM | TGI [7]: > 100 µM | TGI [8]: > 100 µM | TGI [55]: > 100 µM | TGI [9]: > 100 µM | TGI [10]: > 100 µM | TGI [11]: > 100 µM | TGI [12]: > 100 µM | TGI [13]: > 100 µM | TGI [14]: > 100 µM | TGI [15]: > 100 µM | TGI [16]: > 100 µM | TGI [56]: > 100 µM | TGI [17]: > 100 µM | TGI [18]: > 100 µM | TGI [57]: > 100 µM | TGI [19]: > 100 µM | TGI [20]: > 100 µM | TGI [21]: > 100 µM | TGI [22]: > 100 µM | TGI [23]: > 100 µM | TGI [24]: > 100 µM | TGI [25]: > 100 µM | TGI [26]: > 100 µM | TGI [27]: > 100 µM | TGI [28]: > 100 µM | TGI [30]: > 100 µM | TGI [31]: > 100 µM | TGI [32]: > 100 µM | TGI [33]: > 100 µM | TGI [58]: > 100 µM | TGI [34]: > 100 µM | TGI [35]: > 100 µM | TGI [36]: > 100 µM | TGI [37]: > 100 µM | TGI [38]: > 100 µM | TGI [39]: > 100 µM | TGI [40]: > 100 µM | TGI [41]: > 100 µM | TGI [42]: > 100 µM | TGI [59]: > 100 µM | TGI [43]: > 100 µM | TGI [44]: > 100 µM | TGI [45]: > 100 µM | TGI [46]: > 100 µM | TGI [47]: > 100 µM | TGI [48]: > 100 µM | TGI [49]: > 100 µM | TGI [50]: > 100 µM | TGI [51]: > 100 µM | TGI [52]: > 100 µM | TGI [53]: > 100 µM | TGI [54]: > 100 µM

Fc1ccccc1-c1cc(=S)c2cc3c(cc2[nH]1)OCO3
TGI [1]: > 100 µM | TGI [2]: > 80.2 µM | TGI [3]: > 26.7 µM | TGI [4]: > 89 µM | TGI [5]: > 100 µM | TGI [6]: 98.1 µM | TGI [7]: > 100 µM | TGI [8]: > 100 µM | TGI [55]: > 100 µM | TGI [9]: > 100 µM | TGI [11]: 63.2 µM | TGI [12]: > 100 µM | TGI [13]: 57 µM | TGI [14]: > 100 µM | TGI [15]: > 100 µM | TGI [16]: > 100 µM | TGI [56]: > 100 µM | TGI [17]: > 100 µM | TGI [18]: > 100 µM | TGI [57]: > 89 µM | TGI [19]: > 100 µM | TGI [20]: > 100 µM | TGI [21]: > 100 µM | TGI [22]: > 100 µM | TGI [23]: > 100 µM | TGI [24]: > 100 µM | TGI [25]: > 100 µM | TGI [26]: > 100 µM | TGI [27]: > 23.6 µM | TGI [28]: > 100 µM | TGI [29]: > 45.5 µM | TGI [31]: > 30.7 µM | TGI [32]: > 100 µM | TGI [33]: > 100 µM | TGI [58]: > 100 µM | TGI [34]: > 100 µM | TGI [35]: > 100 µM | TGI [36]: > 100 µM | TGI [37]: > 100 µM | TGI [38]: > 100 µM | TGI [39]: > 100 µM | TGI [40]: > 100 µM | TGI [41]: > 100 µM | TGI [42]: > 25.1 µM | TGI [59]: > 100 µM | TGI [43]: > 70 µM | TGI [44]: > 30 µM | TGI [45]: > 100 µM | TGI [46]: > 100 µM | TGI [47]: > 100 µM | TGI [48]: > 100 µM | TGI [49]: > 100 µM | TGI [50]: > 76.7 µM | TGI [51]: > 100 µM | TGI [52]: 40.2 µM | TGI [53]: > 100 µM | TGI [54]: > 100 µM

CCCCCCCCCCCCCC(=O)OCC(CCS(=O)(=O)O[C@H]1CC[C@@]2(C)C(=CC[C@@H]3C2CC[C@]2(C)C(=O)CCC32)C1)OC(=O)CCCCCCCCCCCCC (some centres undefined)
TGI [1]: > 100 µM | TGI [2]: > 100 µM | TGI [3]: > 100 µM | TGI [4]: > 100 µM | TGI [5]: > 100 µM | TGI [6]: > 100 µM | TGI [7]: > 100 µM | TGI [8]: > 100 µM | TGI [55]: > 100 µM | TGI [9]: > 100 µM | TGI [10]: > 100 µM | TGI [11]: > 100 µM | TGI [12]: > 100 µM | TGI [14]: > 100 µM | TGI [15]: > 100 µM | TGI [16]: > 100 µM | TGI [56]: > 100 µM | TGI [17]: > 100 µM | TGI [18]: > 100 µM | TGI [57]: > 100 µM | TGI [19]: > 100 µM | TGI [20]: > 100 µM | TGI [21]: > 100 µM | TGI [22]: > 100 µM | TGI [23]: > 100 µM | TGI [24]: > 100 µM | TGI [25]: > 100 µM | TGI [26]: > 100 µM | TGI [27]: > 100 µM | TGI [28]: > 100 µM | TGI [29]: > 100 µM | TGI [30]: > 100 µM | TGI [31]: > 100 µM | TGI [32]: > 100 µM | TGI [33]: > 100 µM | TGI [58]: > 100 µM | TGI [34]: > 100 µM | TGI [35]: > 100 µM | TGI [36]: > 100 µM | TGI [38]: > 100 µM | TGI [39]: > 100 µM | TGI [40]: > 100 µM | TGI [41]: > 100 µM | TGI [59]: > 100 µM | TGI [43]: > 100 µM | TGI [44]: > 100 µM | TGI [45]: > 100 µM | TGI [46]: > 100 µM | TGI [47]: > 100 µM | TGI [49]: > 100 µM | TGI [50]: > 100 µM | TGI [51]: > 100 µM | TGI [52]: > 100 µM | TGI [53]: > 100 µM | TGI [54]: > 100 µM
